Experiment [1] relates to human dipeptidyl peptidase IV (DPP4). To be noted: dipeptides; cited from earlier work.
Experiment [2] addresses Human recombinant DPP4 (Homo sapiens, UniProt P27487). As to the kind of experiment: DPP4 inhibition assay. The format is biochemical. Particulars: test tripeptide 10 μg/ml; 100 μM Gly-Pro-AMC, 37 °C, 30 min, pH 8.0.

Data on three substances can be found in paper PMC7322046 (Heliyon, 2020).

Chain of Human recombinant DPP4 (P27487 whole entry): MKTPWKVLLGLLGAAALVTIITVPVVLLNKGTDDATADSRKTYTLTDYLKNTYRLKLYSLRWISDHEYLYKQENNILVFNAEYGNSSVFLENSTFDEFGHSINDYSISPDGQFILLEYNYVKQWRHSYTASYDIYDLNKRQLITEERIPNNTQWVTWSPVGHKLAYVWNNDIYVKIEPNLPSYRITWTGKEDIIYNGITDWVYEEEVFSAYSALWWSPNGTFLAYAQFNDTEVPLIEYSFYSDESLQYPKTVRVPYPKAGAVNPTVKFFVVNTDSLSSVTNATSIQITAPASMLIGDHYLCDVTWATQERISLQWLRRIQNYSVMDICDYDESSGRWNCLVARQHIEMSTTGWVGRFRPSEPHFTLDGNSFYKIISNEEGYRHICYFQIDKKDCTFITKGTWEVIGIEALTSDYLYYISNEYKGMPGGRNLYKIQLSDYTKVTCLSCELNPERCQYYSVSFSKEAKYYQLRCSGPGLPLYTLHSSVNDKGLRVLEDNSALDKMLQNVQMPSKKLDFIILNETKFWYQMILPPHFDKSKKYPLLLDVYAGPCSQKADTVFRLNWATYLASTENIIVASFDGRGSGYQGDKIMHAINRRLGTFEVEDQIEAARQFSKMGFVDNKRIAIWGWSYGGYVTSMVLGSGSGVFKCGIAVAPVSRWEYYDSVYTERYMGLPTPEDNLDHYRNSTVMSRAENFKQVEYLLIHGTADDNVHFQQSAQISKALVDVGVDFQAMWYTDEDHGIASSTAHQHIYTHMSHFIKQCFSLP

Regarding Ile-Pro, the “DPP4 inhibitory activity (in words)” value in experiment [1] is listed as “high inhibitory activity”.
Turning to Val-Pro-Leu [VPL], the inhibition ratio in experiment [2] was determined as 31.0%.
Consider Val-Pro, for which, in experiment [1], the “DPP4 inhibitory activity (in words)” value was “high inhibitory activity”.
